Results: patent publication US10273235B2, “Compositions and methods for inhibiting β-lactamase” (LegoChem Biosciences, Inc., priority 2015, dated 2019)
Where “and” joins values, the source holds several entries; their conditions need not be identical. Identical values can stand only once. Counter-ions that a name gives are not always drawn. Like-named read-outs stand apart in the source and are kept apart here.

Experiments:
[1] = target: T1, CMY-10 β-lactamase (class C) (Klebsiella aerogenes, UniProt Q99QC1); assay: Inhibitory activity against β-lactamases (nitrocefin), CMY-10; type: biochemical
T1 construct: MICs of bacterial strains used for extraction of enzymes; endogenous in cells
T1 sequence (Q99QC1 24-382): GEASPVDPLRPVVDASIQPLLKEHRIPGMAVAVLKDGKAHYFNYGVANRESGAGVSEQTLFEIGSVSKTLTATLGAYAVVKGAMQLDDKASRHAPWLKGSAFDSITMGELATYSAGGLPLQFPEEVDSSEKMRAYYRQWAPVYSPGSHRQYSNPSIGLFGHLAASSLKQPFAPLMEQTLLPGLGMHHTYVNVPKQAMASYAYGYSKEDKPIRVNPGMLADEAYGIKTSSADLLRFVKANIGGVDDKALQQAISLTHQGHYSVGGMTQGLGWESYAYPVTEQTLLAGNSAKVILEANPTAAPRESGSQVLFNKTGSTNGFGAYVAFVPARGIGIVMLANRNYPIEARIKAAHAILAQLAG
Procedure: (§1) More diluted stocks were prepared as necessary. Enzyme activity was determined by monitoring the change of absorbance at 492 nm using the characteristic molecular extinction coefficient (Δε492=17,400 M^−1 cm^−1) of nitrocefin by a Shimazu UV-1650PC spectrophotometer. The nitrocefin was purchased from OXOID. Kinetic measurements were run at 30° C. in 10 mM MES[2-(N-morpholino)ethanesulfonic acid]buffer (pH 6.8) or 10 mM MES[2-(N-morpholino)ethanesulfonic acid] buffer (pH 6.8), […] BSA and 50 mM sodium bicarbonate. Reactions were performed in 2.5 mL cuvettes with 100 μM nitrocefin and initiated by adding 1.5 nM to 2.5 nM enzyme. The first 180 s of each reaction was used to measure initial rates. Data were evaluated using Microsoft Excel. Concentration dependent inhibition of enzyme was measured using different concentrations of inhibitors resulting from two-fold dilution series. Reaction progress at every concentration of inhibitor was measured in triplicates. IC50 values were calculated using 4-parameter log fits using XL Fit curve fitting software (www.idbs.com) for Excel using the following equation:
(§2) [formula] where y is the remaining enzyme activity (in %) and x is the corresponding concentration. he fitted IC50 parameter is the relative IC50, and is defined as the concentration giving a response half way between the fitted top (B) and bottom (A) of the curve.

[2] = target: T2, NDM-1 β-lactamase (class B) (Klebsiella pneumoniae, UniProt C7C422); assay: Inhibitory activity against β-lactamases (nitrocefin), NDM-1; type: biochemical; details: 100 μM nitrocefin, 30° C., pH 6.8
T2 construct: MICs of bacterial strains used for extraction of enzymes; endogenous in cells; host or cells: bacterial strain carrying NDM-1 (E. coli according to the earlier reading)
T2 sequence (C7C422 29-270, looked up): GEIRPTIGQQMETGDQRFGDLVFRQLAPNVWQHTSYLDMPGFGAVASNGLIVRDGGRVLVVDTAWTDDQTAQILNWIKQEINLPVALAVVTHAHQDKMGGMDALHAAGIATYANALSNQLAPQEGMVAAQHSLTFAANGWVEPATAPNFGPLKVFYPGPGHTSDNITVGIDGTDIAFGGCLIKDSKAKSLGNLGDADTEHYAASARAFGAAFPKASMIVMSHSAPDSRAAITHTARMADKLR
Procedure: as §1, §2

[3] = test system: K. pneumoniae clinical strains expressing β-lactamases; assay: BLI potentiation MIC, panel of K. pneumoniae clinical strains expressing β-lactamases (isoxazoline vs. isoxazole); type: cell-based; details: in combination with Meropenem and LCB10-0200; Table 12
Procedure: (§3) MIC90 (μg/mL) is the lowest concentration of an antibiotic that will inhibit the visible growth of 90% of microorganisms after incubation as compared with a control group to which the antibiotic is not treated.
(§4) MIC values were measured by the broth microdilution method developed by the Clinical and Laboratory Standards Institute (CLSI) (see CLSI M07-A9, Methods for Dilution Antimicrobial Susceptibility Test for Bacteria that Grow Aerobically; Approved Standard-Ninth Edition (2012): CLSI, Villanova, Pa.). The in vitro antibacterial activity was measured with respect to the following 9 clinical isolates: P. aeruginosa (3 strains); K. pneumoniae (6 strains). The in vitro antibacterial activity of selected compounds was measured with respect to the following 15 clinical isolates: K. pneumoniae (15 strains).

[4] = target: T3, OXA-48 β-lactamase (class D) (Klebsiella pneumoniae, UniProt Q6XEC0); assay: Inhibitory activity against β-lactamases (nitrocefin), OXA-48; type: biochemical; details: 100 μM nitrocefin, 30° C., pH 6.8
T3 construct: MICs of bacterial strains used for extraction of enzymes; endogenous in cells; host or cells: bacterial strain carrying OXA-48 (E. coli according to the earlier reading)
T3 sequence (Q6XEC0 23-265, looked up): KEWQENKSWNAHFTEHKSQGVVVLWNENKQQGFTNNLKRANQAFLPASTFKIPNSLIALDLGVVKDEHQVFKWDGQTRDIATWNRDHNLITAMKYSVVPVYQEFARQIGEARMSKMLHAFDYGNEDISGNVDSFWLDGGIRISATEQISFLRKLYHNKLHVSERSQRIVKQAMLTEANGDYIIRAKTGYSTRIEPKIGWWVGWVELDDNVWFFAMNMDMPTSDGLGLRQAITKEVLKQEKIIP
Procedure: as §1, §2

[5] = target: KPC-3 β-lactamase (class A) (Klebsiella pneumoniae, UniProt Q9F663, H272Y); assay: Inhibitory activity against β-lactamases (nitrocefin), KPC-3; type: biochemical, K. pneumoniae
Sequence of KPC-3 β-lactamase (class A) (Q9F663 25-293 H272Y): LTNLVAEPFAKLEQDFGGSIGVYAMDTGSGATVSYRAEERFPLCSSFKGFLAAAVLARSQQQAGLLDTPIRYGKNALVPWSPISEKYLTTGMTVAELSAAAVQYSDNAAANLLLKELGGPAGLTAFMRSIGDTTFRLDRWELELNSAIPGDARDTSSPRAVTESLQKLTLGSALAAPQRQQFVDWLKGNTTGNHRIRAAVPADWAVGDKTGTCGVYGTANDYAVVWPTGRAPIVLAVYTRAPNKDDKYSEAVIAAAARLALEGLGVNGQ
Procedure: as §1, §2

K. pneumoniae 7586 = assay: BLI potentiation MIC, K. pneumoniae 7586; type: cell-based; details: BLI fixed 4 ug/ml; incubation 19 h
Procedure: as §3, §4

K. pneumoniae 23 = assay: BLI potentiation MIC, K. pneumoniae 23; type: cell-based; details: BLI fixed 4 ug/ml; incubation 19 h
Procedure: as §3, §4

E. aerogenes K9911729 = assay: MIC of strain used for extraction of enzymes, E. aerogenes K9911729 (CMY-10, TEM-1, SHV-12, AmpC (DQ478697)); type: cell-based; details: BLI: 4 ug/mL
P. aeruginosa ATCC27853 = assay: BLI potentiation MIC (broth microdilution), P. aeruginosa ATCC27853 (PoxB, AmpC); type: cell-based; details: BLI fixed 4 ug/ml; incubation 19 h
Procedure: as §3, §4

K. pneumoniae 89 = assay: BLI potentiation MIC, K. pneumoniae 89; type: cell-based; details: BLI fixed 4 ug/ml; incubation 19 h
Procedure: as §3, §4

P. aeruginosa ARC3506 = assay: BLI potentiation MIC, P. aeruginosa ARC3506 (VEB-1, OXA-10, OprD−, AmpC); type: cell-based; details: BLI fixed 4 ug/ml; incubation 19 h
Procedure: as §3, §4

P. aeruginosa ARC3514 = assay: BLI potentiation MIC, P. aeruginosa ARC3514 (KPC-2, OprD−, AmpC); type: cell-based; details: BLI fixed 4 ug/ml; incubation 19 h
Procedure: as §3, §4

K. pneumoniae 5576 = assay: BLI potentiation MIC, K. pneumoniae 5576 (SHV-11, CMY-2, DHA-1, TEM-1); type: cell-based; details: BLI fixed 4 ug/ml; incubation 19 h
Procedure: as §3, §4

E. coli K0519020 = assay: MIC of strain used for extraction of enzymes, E. coli K0519020 (CTX-M-15, TEM-1, OXA-1, AmpC (NC_000913)); type: cell-based; details: BLI: 4 ug/mL
K. pneumoniae 6839 = assay: BLI potentiation MIC, K. pneumoniae 6839 (SHV-11, SHV-12, DHA-1); type: cell-based; details: BLI fixed 4 ug/ml; incubation 19 h
Procedure: as §3, §4

K. pneumoniae 5117 = assay: BLI potentiation MIC, K. pneumoniae 5117 (SHV-11, TEM-1); type: cell-based; details: BLI fixed 4 ug/ml; incubation 19 h
Procedure: as §3, §4

K. pneumoniae 4248 = assay: BLI potentiation MIC, K. pneumoniae 4248 (SHV-11, CTX-M-15, TEM-1, OXA-1); type: cell-based; details: BLI fixed 4 ug/ml; incubation 19 h
Procedure: as §3, §4

K. pneumoniae 5971(KOX) = assay: BLI potentiation MIC, K. pneumoniae 5971(KOX); type: cell-based; details: BLI fixed 4 ug/ml; incubation 19 h
Procedure: as §3, §4

K. pneumoniae 4006 = assay: BLI potentiation MIC, K. pneumoniae 4006 (SHV-12, CTX-M-15, TEM-1, OXA-9); type: cell-based; details: BLI fixed 4 ug/ml; incubation 19 h
Procedure: as §3, §4

K. pneumoniae NDM-506 = assay: BLI potentiation MIC, K. pneumoniae NDM-506; type: cell-based; details: BLI fixed 4 ug/ml; incubation 19 h
Procedure: as §3, §4

K. pneumoniae 100 = assay: BLI potentiation MIC, K. pneumoniae 100; type: cell-based; details: BLI fixed 4 ug/ml; incubation 19 h
Procedure: as §3, §4

K. pneumoniae ATCC700603 = assay: BLI potentiation MIC, K. pneumoniae ATCC700603 (SHV-3); type: cell-based; details: BLI fixed 4 ug/ml; incubation 19 h
Procedure: as §3, §4

K. pneumoniae 5216 = assay: BLI potentiation MIC, K. pneumoniae 5216 (TEM-1A); type: cell-based; details: BLI fixed 4 ug/ml; incubation 19 h
Procedure: as §3, §4

K. pneumoniae MP14 = assay: BLI potentiation MIC, K. pneumoniae MP14; type: cell-based; details: BLI fixed 4 ug/ml; incubation 19 h
Procedure: as §3, §4

K. pneumoniae CL5761 = assay: MIC of strain used for extraction of enzymes, K. pneumoniae CL5761 (KPC-3, TEM-216, SHV-5); type: cell-based; details: BLI: 4 ug/mL
Procedure: as §3, §4

K. pneumoniae 3784 = assay: BLI potentiation MIC, K. pneumoniae 3784 (SHV-11, SHV-12, DHA-1); type: cell-based; details: BLI fixed 4 ug/ml; incubation 19 h
Procedure: as §3, §4

K. pneumoniae 101 = assay: BLI potentiation MIC, K. pneumoniae 101; type: cell-based; details: BLI fixed 4 ug/ml; incubation 19 h
Procedure: as §3, §4

K. pneumoniae 6540 = assay: BLI potentiation MIC, K. pneumoniae 6540; type: cell-based; details: BLI fixed 4 ug/ml; incubation 19 h
Procedure: as §3, §4

SMILES: NC[C@H]1CC([C@@H]2CC[C@@H]3CN2C(=O)N3OS(=O)(=O)O)=NO1 [Example 15, [(2S)-2-[(5R)-5-(aminomethyl)-4,5-dihydroisoxazol-3-yl]-7-oxo-1,6-diazabicyclo[3.2.1]octan-6-yl] hydrogen sulfate]
- IC50 [1]: 0.123 µM
- IC50 [2]: 1650 µM
- coverage on various β-lactamases compared with Cubist-1 [3]: much broader coverage on various β-lactamases than Cubist-1
- IC50 [4]: 6.42 µM
- IC50 [5]: 3.03 µM

SMILES: NCCONC(=O)[C@@H]1CC[C@@H]2CN1C(=O)N2OS(=O)(=O)O [OP-595]
- IC50 ([1]; 100 μM nitrocefin, 30° C., pH 6.8, read-out: IC50 values, CMY-10): 42.6 µM
- MIC of LCB10-0200 with BLI (K. pneumoniae 7586): 0.03125 μg/mL and 0.0625 μg/mL
- MIC of LCB10-0200 with BLI (K. pneumoniae 23): 1 μg/mL
- MIC of LCB10-0200 with BLI (E. aerogenes K9911729): <0.0312 μg/mL
- MIC of Meropenem with BLI (E. aerogenes K9911729): <0.0312 µg/mL
- MIC of Ceftazidime with BLI (P. aeruginosa ATCC27853): 2 µg/mL
- MIC of LCB10-0200 with BLI (P. aeruginosa ATCC27853): 0.25 μg/mL and 0.5 μg/mL
- MIC of Meropenem with BLI (P. aeruginosa ATCC27853): 2 µg/mL
- MIC of LCB10-0200 with BLI (K. pneumoniae 89): 0.0625 μg/mL
- MIC of Ceftazidime with BLI (P. aeruginosa ARC3506): 32 µg/mL
- MIC of LCB10-0200 with BLI (P. aeruginosa ARC3506): 0.25 μg/mL
- MIC of Meropenem with BLI (P. aeruginosa ARC3506): 64 µg/mL
- MIC of Ceftazidime with BLI (P. aeruginosa ARC3514): 8 µg/mL
- MIC of LCB10-0200 with BLI (P. aeruginosa ARC3514): 0.125 μg/mL and 0.25 μg/mL
- MIC of Meropenem with BLI (P. aeruginosa ARC3514): >64 µg/mL
- MIC of Ceftazidime with BLI (K. pneumoniae 5576): 0.125 µg/mL
- MIC of LCB10-0200 with BLI (K. pneumoniae 5576): 0.0625 μg/mL
- MIC of Meropenem with BLI (K. pneumoniae 5576): 0.03125 µg/mL and 0.0625 µg/mL
- MIC of LCB10-0200 with BLI (E. coli K0519020): 0.0625 μg/mL
- MIC of Meropenem with BLI (E. coli K0519020): 0.125 µg/mL
- MIC of LCB10-0200 with BLI (K. pneumoniae 6839): 0.0625 μg/mL
- MIC of LCB10-0200 with BLI (K. pneumoniae 5117): 0.0625 μg/mL
- MIC of Meropenem with BLI (K. pneumoniae 5117): 0.5 µg/mL and 0.25 µg/mL
- MIC of Ceftazidime with BLI (K. pneumoniae 4248): 0.0625 µg/mL
- MIC of LCB10-0200 with BLI (K. pneumoniae 4248): <0.03125 μg/mL
- MIC of Meropenem with BLI (K. pneumoniae 4248): 0.0625 µg/mL
- MIC of LCB10-0200 with BLI (K. pneumoniae 5971(KOX)): 8 μg/mL and 16 μg/mL
- MIC of Ceftazidime with BLI (K. pneumoniae 4006): 0.125 µg/mL
- MIC of LCB10-0200 with BLI (K. pneumoniae 4006): 0.03125 μg/mL and 0.0625 μg/mL
- MIC of Meropenem with BLI (K. pneumoniae 4006): 0.0625 µg/mL
- MIC of Ceftazidime with BLI (K. pneumoniae NDM-506): 0.125 µg/mL
- MIC of Meropenem with BLI (K. pneumoniae NDM-506): >64 µg/mL
- MIC of LCB10-0200 with BLI (K. pneumoniae 100): 0.0625 μg/mL
- IC50 [4]: 44.2 µM
- IC50 ([5]; 100 μM nitrocefin, 30° C., pH 6.8, read-out: IC50 values, KPC-3): 0.0637 µM
- MIC of Ceftazidime with BLI (K. pneumoniae ATCC700603): 0.125 µg/mL
- MIC of LCB10-0200 with BLI (K. pneumoniae ATCC700603): 0.125 μg/mL
- MIC of Meropenem with BLI (K. pneumoniae ATCC700603): 0.125 µg/mL and 0.0625 µg/mL
- MIC of LCB10-0200 with BLI (K. pneumoniae 5216): 0.25 μg/mL and 0.5 μg/mL
- MIC of Meropenem with BLI (K. pneumoniae 5216): 2 µg/mL
- MIC of LCB10-0200 with BLI (K. pneumoniae MP14): 0.03125 μg/mL and <0.0312 μg/mL
- MIC of LCB10-0200 with BLI (K. pneumoniae CL5761): 0.25 μg/mL
- MIC of Meropenem with BLI (K. pneumoniae CL5761): 1 µg/mL
- MIC of Ceftazidime with BLI (K. pneumoniae 3784): 0.5 µg/mL
- MIC of LCB10-0200 with BLI (K. pneumoniae 3784): 0.0625 μg/mL
- MIC of Meropenem with BLI (K. pneumoniae 3784): 0.25 µg/mL
- MIC of LCB10-0200 with BLI (K. pneumoniae 101): 0.25 μg/mL
- MIC of Meropenem with BLI (K. pneumoniae 101): 0.125 µg/mL and 0.0625 µg/mL
- MIC of LCB10-0200 with BLI (K. pneumoniae 6540): 0.0625 μg/mL
- MIC of Meropenem with BLI (K. pneumoniae 6540): 0.125 µg/mL and 0.0625 µg/mL
